Read-outs that look alike come from different tables or passages of the source.
Assays:
[1] = test system: IL-6; experiment: IL-6 secretion assay in human PBMCs (LPS, ELISA); format: cell-based; details: read-out: Inhibitory Activity EC50, IL6
Experimental: Fetal bovine serum (FBS) was obtained from ThermoFisher (Cat #16000044). • Other reagents: 96 well TC plates were obtained from ThermoFisher (Cat #07-2000-90). LPS was obtained from Sigma (Cat #L3024).
IL-6 was assessed using a standard ELISA protocol. Cryopreserved PBMCs were thawed in a water bath and transferred to 50 mL polypropylene tubes. The cells were washed two times with 25 mL of RPMI medium supplemented with 5% of heat-inactivated FBS and re-suspended at a density of 4.5^^6 cells/mL. The cells were plated into 96 well TC late (100 uL/well). Serially diluted compound was added to the cells in duplicate wells for each concentration. Control wells received DMSO only (0.3% final). The cells were pre-incubated with compound for 1 hr. After pre-incubation, the cells were stimulated by LPS (100 ng/mL) for 6 hr. Control samples with and without LPS in the absence of compound were assembled in each test plate. IL-6 was detected in media supernatants by using a sandwich anti-IL-6 ELISA kit (BD Biosciences) according to protocol provided by the manufacturer. ELISA readout (optical density at 450 nm) is commensurable with the amount of IL-6 produced by the cells. Assay window was determined in each experiment by comparing average OD450 values in stimulated and un-stimulated samples in the absence of compound. ELISA calibration was performed in each detection plate using serially diluted recombinant human IL-6, to ensure that OD450 values for all test samples were within linear range of detection.%-Inhibition by compound was calculated using following equation.
where OD450100% is optical density in control samples stimulated with LPS without compound, OD4500% is optical density in unstimulated control samples, and OD450compound is optical density in a sample stimulated with LPS in the presence of compound.
The calculated %-Inh values were plotted against compound concentration. To determine IC50 values, dose-response curves were fitted by a 4-parameter sigmoid inhibition model using XLFit® software (IDBS).

[2] = molecular target: T1, recombinant human LOX-5 (Homo sapiens, UniProt P09917); experiment: Biochemical LOX-5 assay
T1 construct: expressed in insect cells (Amino Acids 1-674) was obtained from Cayman; purchased Cayman 60402; host or cells: insect cells
T1 sequence (P09917 1-674): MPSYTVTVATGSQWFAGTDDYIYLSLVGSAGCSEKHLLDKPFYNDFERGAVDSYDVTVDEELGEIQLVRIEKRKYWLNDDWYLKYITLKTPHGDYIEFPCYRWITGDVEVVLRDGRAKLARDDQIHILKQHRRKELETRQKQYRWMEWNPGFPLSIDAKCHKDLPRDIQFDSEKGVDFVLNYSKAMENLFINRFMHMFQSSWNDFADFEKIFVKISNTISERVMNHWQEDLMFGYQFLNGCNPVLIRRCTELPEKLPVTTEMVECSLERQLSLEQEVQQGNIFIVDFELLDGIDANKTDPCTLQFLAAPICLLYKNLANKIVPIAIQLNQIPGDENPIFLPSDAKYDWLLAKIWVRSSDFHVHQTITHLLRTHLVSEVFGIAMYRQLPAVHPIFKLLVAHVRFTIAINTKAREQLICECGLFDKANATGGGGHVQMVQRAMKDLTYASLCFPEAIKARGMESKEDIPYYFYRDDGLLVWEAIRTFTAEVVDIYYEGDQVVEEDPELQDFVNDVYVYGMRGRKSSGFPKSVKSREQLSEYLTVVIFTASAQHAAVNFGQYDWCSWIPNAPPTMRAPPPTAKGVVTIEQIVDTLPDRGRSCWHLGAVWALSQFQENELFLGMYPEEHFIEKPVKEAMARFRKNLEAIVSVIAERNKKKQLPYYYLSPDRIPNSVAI
Experimental: The LOX-5 assay was performed in assay buffer comprising: 50 mM Tris (pH 7.5), 2 mM EDTA, 2 mM CaCl2), 3 uM AA, 10 uM ATP, 10 uM H2DCFDA, and recombinant enzyme (50 mU per 20 ul reaction, as defined by manufacturer). Serially diluted compounds were prepared in DMSO in Echo qualified 384 well plates. An assay buffer was then prepared without AA and ATP supplemented with 20 uM H2DCFDA. 10 uL of the supplemented buffer was dispensed into control (no enzyme) wells in the black 384 well assay plate. Next, a 2× enzyme solution was prepared, comprising 100 mU LOX-5 enzyme in the supplemented assay buffer. 10 uL of the 2× enzyme solution was then dispensed into test wells in the black 384 well assay plate. Serially diluted compounds were added to the assay plate by acoustic dispensing (Labcyte 550). Control wells received DMSO only.
Next, the 2× substrate was prepared to comprise 6 uM arachidonic acid and 20 uM ATP in the assay buffer. 10 uL of the 2× substrate was then added to all wells in the assay plate. The plate was incubated for 20 min.
[formula] • where RFU100% is fluorescence in control samples without compound, RFU0% is fluorescence in control samples without LOX-5, and RFUcompound fluorescence in a sample with compound.
The calculated %-Inh values were plotted against compound concentration. To determine EC50 values, dose-response curves were fitted by a 4-parameter sigmoid inhibition model using XLFit® software (IDBS).

[3] = PBMC, human PBMCs, LPS 100 ng/mL 6 hr
[4] = recombinant enzyme, read-out: Inhibitory Activity EC50, 5-Lox

Compound | EC50 [1, 3] [µM] | EC50 [2] [nM] | EC50 ([1]; Homo sapiens, PBMC, 6 h) [µM] | EC50 [2, 4] [nM] | EC50 ([1]; human PBMCs, LPS 100 ng/mL 6 hr) [µM] | stronger inhibition for 5-Lox compared to Cox-2 [2]
CCCCCc1cc(OC(C)=O)c(C/C=C(\C)CCC=C(C)C)c(O)c1OC(C)=O [Formula XLIII] | > 10 | 340 | – | – | – | –
CCCCCc1cc(OC)c(C/C=C(\C)CCC=C(C)C)c(O)c1OC [Formula XLII] | > 10 | 210 | – | – | – | –
CCCCCC1=C(NC)C(=O)C(C/C=C(\C)CCC=C(C)C)=C(O)C1=O [Formula XLI] | > 10 | 480 | – | – | – | –
CCCCCc1cc(O)c(C/C=C(\C)CCC=C(C)C)c(O)c1O [Formula XXXIX] | – | – | > 10 | 200 | – | –
Cannabigerol Quinone [Formula VI] | – | – | – | 270 | 17.9 | over 200 fold

From US20250073184A1, “CANNABIGEROQUINONE COMPOUNDS, COMPOSITIONS INCLUDING SUCH COMPOUNDS, AND USES OF SUCH COMPOUNDS AND COMPOSITIONS” (Juva Life, Inc., priority 2021, published 2025)
